A short description of assay [1]: Oxygen radical absorbance capacity (ORAC). As to conditions: Trolox equivalents. As for the experimental part:
The ORAC (Oxygen Radical Absorbance Capacity) test was carried out using a modified version of the procedure reported by Huang et al.. This test examines the antioxidant capacity of compounds by examining their ability to neutralize oxygen radicals. The method was carried out utilizing a 96-well microplate format. First, 150 µL of fluorescein solution, produced as 8 × 10^−8 M fluorescein in 0.075 M phosphate buffer (pH 7.4), were dispersed to each well. Fluorescein is a fluorescent probe whose fluorescence lowers when it reacts with radicals. Next, 25 µL of the substance or mixture to be evaluated was added to the corresponding wells. Wells containing 25 µL of phosphate buffer served as blanks, and wells containing 25 µL of Trolox solution (from 10 to 100 µm) were utilized as standards. Control wells containing 50 µL phosphate buffer without any radicals were also added to provide a baseline. The reaction was initiated by adding 25 µL of a freshly produced solution of AAPH (2,2′-azobis(2-methylpropionamidine) dihydrochloride) at a concentration of 165.94 mM in phosphate buffer to each well, except for the control wells, at a temperature of 37 °C. AAPH creates peroxyl radicals that induce oxidative stress in the fluorescein solution, simulating free-radical attack. […] The fluorescence in-tensity of the mixture was then monitored at regular intervals for 120 min.

Assay [2] addresses T1, 5-LOX (Glycine max, UniProt P08170).
T1 sequence (P08170 1-839): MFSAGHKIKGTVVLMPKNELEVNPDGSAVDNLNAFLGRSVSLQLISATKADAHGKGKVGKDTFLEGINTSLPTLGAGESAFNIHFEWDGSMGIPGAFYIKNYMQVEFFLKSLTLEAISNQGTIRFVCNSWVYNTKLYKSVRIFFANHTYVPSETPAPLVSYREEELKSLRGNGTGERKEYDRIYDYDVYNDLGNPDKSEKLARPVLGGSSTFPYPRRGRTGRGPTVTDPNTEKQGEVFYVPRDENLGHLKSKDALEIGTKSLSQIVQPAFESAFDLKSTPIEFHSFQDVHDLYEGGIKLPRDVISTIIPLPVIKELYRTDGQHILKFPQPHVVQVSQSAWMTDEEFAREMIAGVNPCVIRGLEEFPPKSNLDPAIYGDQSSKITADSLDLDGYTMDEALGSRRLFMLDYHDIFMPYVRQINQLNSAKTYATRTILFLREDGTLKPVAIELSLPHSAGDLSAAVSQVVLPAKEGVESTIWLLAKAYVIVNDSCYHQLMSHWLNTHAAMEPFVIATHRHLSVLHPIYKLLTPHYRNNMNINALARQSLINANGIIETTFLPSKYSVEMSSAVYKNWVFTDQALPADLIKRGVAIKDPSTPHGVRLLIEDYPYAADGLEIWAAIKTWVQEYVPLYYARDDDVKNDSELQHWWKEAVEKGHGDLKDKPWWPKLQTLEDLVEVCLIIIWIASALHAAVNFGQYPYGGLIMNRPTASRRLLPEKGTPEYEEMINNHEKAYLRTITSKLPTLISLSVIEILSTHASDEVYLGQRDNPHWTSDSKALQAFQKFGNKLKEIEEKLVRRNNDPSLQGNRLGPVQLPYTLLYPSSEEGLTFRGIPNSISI
In words: 5-Lipoxygenase (5-LOX) inhibition.
Description: The % inhibition of hydrogen peroxide formation, an indication of lipoxygenase inhibitory action, was computed according to the formula: Inhibition percentage%=Acontrol−Ablank−Asample−Ablank/Acontrol−Ablank where Acontrol, Ablank and ASample represent the absorbances of the control well, blank, and test sample, respectively.

In assay [3] the target is T2, COX-2 (Ovis aries, UniProt P79208).
T2 construct: purchased Cayman Chemical Company, Ann Arbor, MI, USA; host or cells: sheep placenta (tissue)
T2 sequence (P79208 17-603): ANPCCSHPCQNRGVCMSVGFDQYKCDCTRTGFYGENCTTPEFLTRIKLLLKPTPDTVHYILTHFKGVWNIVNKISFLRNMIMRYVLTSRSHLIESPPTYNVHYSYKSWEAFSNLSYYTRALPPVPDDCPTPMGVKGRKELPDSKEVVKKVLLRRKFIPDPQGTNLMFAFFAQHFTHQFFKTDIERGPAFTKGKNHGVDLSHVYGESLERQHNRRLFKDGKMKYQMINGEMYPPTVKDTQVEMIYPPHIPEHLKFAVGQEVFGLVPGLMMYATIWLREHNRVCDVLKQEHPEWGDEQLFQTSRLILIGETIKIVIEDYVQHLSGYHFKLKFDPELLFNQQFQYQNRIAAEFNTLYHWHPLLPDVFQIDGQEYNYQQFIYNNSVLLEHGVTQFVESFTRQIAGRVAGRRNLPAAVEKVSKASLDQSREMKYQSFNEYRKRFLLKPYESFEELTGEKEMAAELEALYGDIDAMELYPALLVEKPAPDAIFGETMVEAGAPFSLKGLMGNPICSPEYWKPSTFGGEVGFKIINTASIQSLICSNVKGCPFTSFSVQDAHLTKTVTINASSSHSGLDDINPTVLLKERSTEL
In words: COX-2-catalyzed prostaglandin production inhibition. The class given is biochemical, sheep. The settings on record: mean ± standard deviation, three replicas. The protocol:
The COX inhibitory effects of the substances were examined using a COX-1/COX-2-catalyzed prostaglandin production test, using a modified approach by Futaki et al.. The chemicals were dissolved in 4% DMSO to a final concentration of 100 µg/mL.
In this test, one unit of COX-1 or COX-2 enzyme was suspended in a 0.1 M Tris-HCl buffer (pH 7.5) containing hematin ([…]) and phenol (2 mM) as cofactors. The COX-1 enzyme was produced from ram seminal vesicles, while COX-2 was taken from sheep placenta with a purity of 70% (both from Cayman Chemical Company, Ann Arbor, MI, USA). The reaction mixture was preincubated with either the solvent vehicle (4% DMSO) or the test solution for 2 min at 37 °C. […] Arachidonic acid, tagged with radioactive carbon ([1–14C]), serves as a substrate for the COX enzymes. The mixture was then incubated for an additional 2 min at 37 °C. […] The organic solvent phase was removed, and the PGE2 level in the remaining aqueous phase was quantified using a radioimmunoassay with a liquid scintillation counter, which measures the radioactivity (disintegrations per minute, DPM) of the [1–14C]-labeled PGE2. The percentage inhibition of COX-catalyzed prostaglandin production by the test compounds was estimated by comparing the radioactivity of the samples with the solvent vehicle controls. […]

A short description of assay [4]: DPPH scavenging capacity. The settings on record: 0.1 mM DPPH. The protocol:
The method utilized to test the compound’s efficacy in scavenging DPPH radicals was based on protocols detailed in references, with minor changes. The test was completed in duplicate for each concentration. A solution of 0.1 mM DPPH (2,2-diphenyl-1-picrylhydrazyl) was produced, and the compounds were evaluated at different concentrations ranging from 1 to 500 µg/mL. Ascorbic acid served as the positive control with concentrations ranging from 0.01 to 300 µg/mL [35].

Usually IC50 stands for the concentration that gives 50% inhibition.

The structures appear in SMILES notation.

Turning to `Cc1ccc(C(C)C)c(O)c1` [Thymol, 2-isopropyl-5-methylphenol], the “Oxygen Radical Absorbance Capacity” value in assay [1] worked out at 2.341 ± 0.009 mmol TE/g. The results for the IC50 in assay [2] and in assay [3] were 308 µM and 177 µM, respectively. In addition, in assay [4], the “DPPH Scavenging Capacity IC50” value is 161.02 ± 6.89 µg/mL.
